Experimental data taken from ChEMBL document CHEMBL3862033 (J Med Chem, 2016).

Target: 5-hydroxytryptamine receptor 7 (Homo sapiens) (UniProt P34969)
Test: Displacement of [3H]LSD from human 5-HT7A receptor expressed in HEK cell membranes at 10 uM incubated for 90 mins under dark condition by microbeta scintillation counting method relative to control
Conditions: HEK293

Chain of 5-hydroxytryptamine receptor 7 (Homo sapiens) (P34969 whole entry): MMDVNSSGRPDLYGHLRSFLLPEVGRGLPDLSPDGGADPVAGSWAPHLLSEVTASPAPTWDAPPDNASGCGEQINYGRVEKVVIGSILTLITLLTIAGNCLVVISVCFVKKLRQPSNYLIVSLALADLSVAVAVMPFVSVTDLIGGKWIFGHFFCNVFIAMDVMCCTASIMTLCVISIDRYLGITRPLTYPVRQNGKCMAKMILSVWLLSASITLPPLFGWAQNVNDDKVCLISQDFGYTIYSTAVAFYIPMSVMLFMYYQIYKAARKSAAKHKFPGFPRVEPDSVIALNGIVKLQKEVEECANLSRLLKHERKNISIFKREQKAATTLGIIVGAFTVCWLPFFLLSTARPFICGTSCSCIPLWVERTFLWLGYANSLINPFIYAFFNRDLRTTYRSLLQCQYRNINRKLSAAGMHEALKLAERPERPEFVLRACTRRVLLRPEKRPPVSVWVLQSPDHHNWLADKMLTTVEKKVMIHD

SMILES | inhibition
CNC(=O)[C@@]12C[C@@H]1[C@@H](n1cnc3c(N(C)C)nc(C#Cc4ccc(Cl)s4)nc31)[C@H](O)[C@@H]2O | < 50%

Target: T1, 5-hydroxytryptamine receptor 2A (Homo sapiens, UniProt P28223)
Test: Displacement of [3H]ketanserin from human 5-HT2A receptor expressed in HEK-T cell membranes incubated for 90 mins under dark condition by microbeta scintillation counting method
Conditions: not given

T1 sequence (P28223 whole entry): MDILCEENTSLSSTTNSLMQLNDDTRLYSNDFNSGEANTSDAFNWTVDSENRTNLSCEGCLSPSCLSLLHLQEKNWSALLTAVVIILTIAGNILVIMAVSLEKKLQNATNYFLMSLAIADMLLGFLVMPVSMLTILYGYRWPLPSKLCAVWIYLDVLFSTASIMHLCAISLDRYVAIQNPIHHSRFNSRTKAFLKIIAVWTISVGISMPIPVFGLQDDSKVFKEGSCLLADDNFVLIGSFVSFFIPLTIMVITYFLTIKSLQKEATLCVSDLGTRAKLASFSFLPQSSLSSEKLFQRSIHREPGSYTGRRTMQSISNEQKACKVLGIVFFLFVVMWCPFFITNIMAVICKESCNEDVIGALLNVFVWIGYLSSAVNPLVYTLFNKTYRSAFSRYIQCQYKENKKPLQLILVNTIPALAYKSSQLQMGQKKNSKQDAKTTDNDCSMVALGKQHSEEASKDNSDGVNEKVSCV

SMILES | Ki
CNC(=O)[C@@]12C[C@@H]1[C@@H](n1cnc3c(N(C)C)nc(C#Cc4ccc(Cl)s4)nc31)[C@H](O)[C@@H]2O | > 10 µM

Target: Adenosine receptor A2a (Homo sapiens, UniProt P29274)
Test: Displacement of [3 H]2-[p-(2-carboxyethyl)phenyl-ethylamino]-5'-N-ethylcarboxamidoadenosine from recombinant human adenosine receptor A2A expressed in HEK293 cell membranes at 10 uM after 60 mins by liquid scintillation counting method relative to control
Conditions: not given

Chain of Adenosine receptor A2a (P29274 whole entry): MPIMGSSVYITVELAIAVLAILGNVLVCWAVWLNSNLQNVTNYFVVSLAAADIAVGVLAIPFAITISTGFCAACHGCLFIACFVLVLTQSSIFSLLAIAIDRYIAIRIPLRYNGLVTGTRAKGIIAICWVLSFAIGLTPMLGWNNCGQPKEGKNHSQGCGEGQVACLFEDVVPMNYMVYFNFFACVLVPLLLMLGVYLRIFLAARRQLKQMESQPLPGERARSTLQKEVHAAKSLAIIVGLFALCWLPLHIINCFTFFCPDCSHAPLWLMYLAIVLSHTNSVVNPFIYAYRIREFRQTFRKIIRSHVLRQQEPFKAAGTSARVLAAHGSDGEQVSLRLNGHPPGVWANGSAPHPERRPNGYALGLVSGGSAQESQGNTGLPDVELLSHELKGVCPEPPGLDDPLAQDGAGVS

SMILES | inhibition
CNC(=O)[C@@]12C[C@@H]1[C@@H](n1cnc3c(N(C)C)nc(C#Cc4ccc(Cl)s4)nc31)[C@H](O)[C@@H]2O | 15%

Target: T2, Adenosine receptor A3 (Homo sapiens, UniProt P0DMS8)
T2 sequence (P0DMS8 whole entry): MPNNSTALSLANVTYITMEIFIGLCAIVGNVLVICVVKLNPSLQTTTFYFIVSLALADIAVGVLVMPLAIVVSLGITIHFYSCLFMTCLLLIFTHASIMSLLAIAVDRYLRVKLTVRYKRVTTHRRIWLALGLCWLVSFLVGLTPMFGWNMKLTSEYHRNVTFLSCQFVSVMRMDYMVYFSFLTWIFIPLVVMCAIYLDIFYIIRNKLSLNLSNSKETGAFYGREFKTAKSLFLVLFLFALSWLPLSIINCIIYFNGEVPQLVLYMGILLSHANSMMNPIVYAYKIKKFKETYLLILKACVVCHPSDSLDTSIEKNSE
Test: Displacement of [125l]N 6-(4-amino-3-iodobenzyl)adenosine-5'-N-methyluronamide from recombinant human A3AR expressed in CHO cell membranes after 60 mins by gamma counting method
Conditions: not given

SMILES | Ki
CNC(=O)[C@@]12C[C@@H]1[C@@H](n1cnc3c(N(C)C)nc(C#Cc4ccc(Cl)s4)nc31)[C@H](O)[C@@H]2O | 23.5 nM

Target: 5-hydroxytryptamine receptor 1B (Homo sapiens) (UniProt P28222)
Test: Displacement of [3H]5-CT from human 5-HT1BR expressed in HEK cell membranes at 10 uM incubated for 90 mins under dark condition by microbeta scintillation counting method relative to control
Conditions: HEK293

Chain of 5-hydroxytryptamine receptor 1B (Homo sapiens) (P28222 whole entry): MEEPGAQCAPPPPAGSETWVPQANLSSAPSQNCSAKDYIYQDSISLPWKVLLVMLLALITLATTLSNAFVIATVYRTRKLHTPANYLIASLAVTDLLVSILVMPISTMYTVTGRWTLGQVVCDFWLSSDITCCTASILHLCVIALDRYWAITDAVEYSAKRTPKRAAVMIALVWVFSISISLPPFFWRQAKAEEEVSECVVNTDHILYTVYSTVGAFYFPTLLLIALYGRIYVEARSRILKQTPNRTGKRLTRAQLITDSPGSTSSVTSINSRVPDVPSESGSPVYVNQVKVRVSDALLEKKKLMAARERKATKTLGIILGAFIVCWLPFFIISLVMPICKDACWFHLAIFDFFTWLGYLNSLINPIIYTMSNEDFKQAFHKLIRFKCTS

SMILES | inhibition
CNC(=O)[C@@]12C[C@@H]1[C@@H](n1cnc3c(N(C)C)nc(C#Cc4ccc(Cl)s4)nc31)[C@H](O)[C@@H]2O | < 50%

Target: 5-hydroxytryptamine receptor 6 (Homo sapiens) (UniProt P50406)
Test: Displacement of [3H]LSD from human 5-HT6 receptor expressed in HEK cell membranes at 10 uM incubated for 90 mins under dark condition by microbeta scintillation counting method relative to control
Conditions: HEK293

Chain of 5-hydroxytryptamine receptor 6 (Homo sapiens) (P50406 whole entry): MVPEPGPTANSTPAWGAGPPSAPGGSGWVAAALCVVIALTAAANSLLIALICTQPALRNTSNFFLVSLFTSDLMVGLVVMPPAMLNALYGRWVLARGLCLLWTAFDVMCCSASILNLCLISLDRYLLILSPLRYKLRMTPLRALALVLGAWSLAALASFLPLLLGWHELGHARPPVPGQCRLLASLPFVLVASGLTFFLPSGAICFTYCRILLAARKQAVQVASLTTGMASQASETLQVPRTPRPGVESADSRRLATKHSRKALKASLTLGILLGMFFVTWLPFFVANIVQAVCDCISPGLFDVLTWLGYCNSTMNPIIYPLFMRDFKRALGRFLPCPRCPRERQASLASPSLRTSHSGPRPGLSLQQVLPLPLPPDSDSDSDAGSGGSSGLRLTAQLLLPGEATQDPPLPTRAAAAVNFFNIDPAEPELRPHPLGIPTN

SMILES | inhibition
CNC(=O)[C@@]12C[C@@H]1[C@@H](n1cnc3c(N(C)C)nc(C#Cc4ccc(Cl)s4)nc31)[C@H](O)[C@@H]2O | < 50%

Target: 5-hydroxytryptamine receptor 1D (Homo sapiens) (UniProt P28221)
Test: Displacement of [3H]5-CT from human 5-HT1D receptor expressed in HEK-T cell membranes at 10 uM incubated for 90 mins under dark condition by microbeta scintillation counting method relative to control
Conditions: not given

Chain of 5-hydroxytryptamine receptor 1D (Homo sapiens) (P28221 whole entry): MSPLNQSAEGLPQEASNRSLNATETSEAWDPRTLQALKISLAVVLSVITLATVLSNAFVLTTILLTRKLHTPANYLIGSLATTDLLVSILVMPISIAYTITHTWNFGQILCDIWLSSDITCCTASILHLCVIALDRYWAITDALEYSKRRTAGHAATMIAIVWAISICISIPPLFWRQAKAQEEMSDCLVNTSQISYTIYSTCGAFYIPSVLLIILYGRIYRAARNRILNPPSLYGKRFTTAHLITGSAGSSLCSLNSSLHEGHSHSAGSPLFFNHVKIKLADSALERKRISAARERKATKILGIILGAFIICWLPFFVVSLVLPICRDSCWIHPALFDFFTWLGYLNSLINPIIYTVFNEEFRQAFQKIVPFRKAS

SMILES | inhibition
CNC(=O)[C@@]12C[C@@H]1[C@@H](n1cnc3c(N(C)C)nc(C#Cc4ccc(Cl)s4)nc31)[C@H](O)[C@@H]2O | < 50%

Target: 5-hydroxytryptamine receptor 4 (Homo sapiens) (UniProt Q13639)
Test: Displacement of [3H]GR113808 from human 5-HT4 receptor at 10 uM incubated for 90 mins under dark condition by microbeta scintillation counting method relative to control
Conditions: not given

Chain of 5-hydroxytryptamine receptor 4 (Homo sapiens) (Q13639 whole entry): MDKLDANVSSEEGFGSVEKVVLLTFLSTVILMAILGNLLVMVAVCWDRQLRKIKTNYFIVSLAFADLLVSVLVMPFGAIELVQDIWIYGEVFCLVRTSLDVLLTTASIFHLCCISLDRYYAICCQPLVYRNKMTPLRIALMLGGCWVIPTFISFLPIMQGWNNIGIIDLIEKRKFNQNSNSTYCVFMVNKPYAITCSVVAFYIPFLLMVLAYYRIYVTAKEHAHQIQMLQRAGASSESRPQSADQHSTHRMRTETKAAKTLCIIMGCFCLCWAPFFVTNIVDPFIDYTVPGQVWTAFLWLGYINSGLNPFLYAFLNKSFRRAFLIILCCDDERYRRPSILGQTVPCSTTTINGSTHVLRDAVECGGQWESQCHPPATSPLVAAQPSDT

SMILES | inhibition
CNC(=O)[C@@]12C[C@@H]1[C@@H](n1cnc3c(N(C)C)nc(C#Cc4ccc(Cl)s4)nc31)[C@H](O)[C@@H]2O | < 50%

Target: T1, 5-hydroxytryptamine receptor 2A
Test: Displacement of [3H]ketanserin from human 5-HT2A receptor expressed in HEK-T cell membranes at 10 uM incubated for 90 mins under dark condition by microbeta scintillation counting method relative to control
Conditions: not given

SMILES | inhibition
CNC(=O)[C@@]12C[C@@H]1[C@@H](n1cnc3c(N(C)C)nc(C#Cc4ccc(Cl)s4)nc31)[C@H](O)[C@@H]2O | 27%

Target: T3, 5-hydroxytryptamine receptor 1A (Homo sapiens) (UniProt P08908)
T3 sequence (whole entry): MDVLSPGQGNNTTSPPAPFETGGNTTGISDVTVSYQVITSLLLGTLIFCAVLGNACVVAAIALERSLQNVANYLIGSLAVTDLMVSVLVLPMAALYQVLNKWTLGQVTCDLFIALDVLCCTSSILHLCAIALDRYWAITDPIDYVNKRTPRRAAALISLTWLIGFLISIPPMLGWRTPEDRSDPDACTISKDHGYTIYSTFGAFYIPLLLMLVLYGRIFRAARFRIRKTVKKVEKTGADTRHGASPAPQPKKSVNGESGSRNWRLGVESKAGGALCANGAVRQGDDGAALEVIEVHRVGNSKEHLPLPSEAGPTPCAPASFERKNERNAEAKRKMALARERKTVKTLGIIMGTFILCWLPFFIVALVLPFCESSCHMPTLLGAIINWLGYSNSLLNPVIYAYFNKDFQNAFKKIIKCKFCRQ
Test: Displacement of [3H]WAY100635 from human 5-HT1AR expressed in CHO cell membranes at 10 uM incubated for 90 mins under dark condition by microbeta scintillation counting method relative to control
Conditions: not given

SMILES | inhibition
CNC(=O)[C@@]12C[C@@H]1[C@@H](n1cnc3c(N(C)C)nc(C#Cc4ccc(Cl)s4)nc31)[C@H](O)[C@@H]2O | < 50%

Target: T4, 5-hydroxytryptamine receptor 3A (Homo sapiens) (UniProt P46098)
T4 sequence (whole entry): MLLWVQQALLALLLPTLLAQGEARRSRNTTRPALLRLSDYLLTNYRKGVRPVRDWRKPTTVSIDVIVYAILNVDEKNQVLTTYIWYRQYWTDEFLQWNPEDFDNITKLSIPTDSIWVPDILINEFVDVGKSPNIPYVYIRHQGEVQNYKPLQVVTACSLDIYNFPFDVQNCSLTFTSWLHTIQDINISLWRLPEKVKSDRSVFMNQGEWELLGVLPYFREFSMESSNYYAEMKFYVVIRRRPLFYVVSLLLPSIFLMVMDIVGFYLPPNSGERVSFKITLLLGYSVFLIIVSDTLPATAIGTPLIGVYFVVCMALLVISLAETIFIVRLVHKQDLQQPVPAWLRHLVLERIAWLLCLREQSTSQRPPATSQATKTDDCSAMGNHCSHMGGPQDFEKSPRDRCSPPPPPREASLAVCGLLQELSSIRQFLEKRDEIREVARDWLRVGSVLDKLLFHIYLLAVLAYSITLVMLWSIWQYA
Test: Displacement of [3H]GR65630 from human 5-HT3 receptor expressed in HEK-T cell membranes at 10 uM incubated for 90 mins under dark condition by microbeta scintillation counting method relative to control
Conditions: not given

SMILES | inhibition
CNC(=O)[C@@]12C[C@@H]1[C@@H](n1cnc3c(N(C)C)nc(C#Cc4ccc(Cl)s4)nc31)[C@H](O)[C@@H]2O | < 50%

Target: T5, 5-hydroxytryptamine receptor 2C (Homo sapiens, UniProt P28335)
T5 sequence (P28335 whole entry): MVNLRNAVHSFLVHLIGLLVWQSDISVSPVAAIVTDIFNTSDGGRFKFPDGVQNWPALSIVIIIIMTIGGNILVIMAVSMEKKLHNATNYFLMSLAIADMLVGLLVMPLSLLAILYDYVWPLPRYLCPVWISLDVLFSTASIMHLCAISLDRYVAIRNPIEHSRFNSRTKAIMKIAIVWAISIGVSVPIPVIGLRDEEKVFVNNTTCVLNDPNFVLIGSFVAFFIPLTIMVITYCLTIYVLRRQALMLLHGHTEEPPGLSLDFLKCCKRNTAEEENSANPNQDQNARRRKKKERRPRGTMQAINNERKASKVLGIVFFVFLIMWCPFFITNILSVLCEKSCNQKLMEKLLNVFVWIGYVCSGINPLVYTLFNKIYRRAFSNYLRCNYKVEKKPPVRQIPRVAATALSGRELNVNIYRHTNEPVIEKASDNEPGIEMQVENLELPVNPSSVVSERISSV
Test: Displacement of [3H]mesulergine from human 5-HT2CR expressed in Flp-In HEK cell membranes incubated for 90 mins under dark condition by microbeta scintillation counting method
Design: species or system HEK293
Conditions: not given

SMILES | Ki
CNC(=O)[C@@]12C[C@@H]1[C@@H](n1cnc3c(N(C)C)nc(C#Cc4ccc(Cl)s4)nc31)[C@H](O)[C@@H]2O | 8.5 µM

Target: 5-hydroxytryptamine receptor 5A (Homo sapiens) (UniProt P47898)
Test: Displacement of [3H]LSD from human 5-HT5A receptor expressed in Flp-In-CHO cell membranes incubated for 90 mins under dark condition by microbeta scintillation counting method relative to control
Design: concentration or dose not given beside the values
Conditions: not given

Chain of 5-hydroxytryptamine receptor 5A (Homo sapiens) (P47898 whole entry): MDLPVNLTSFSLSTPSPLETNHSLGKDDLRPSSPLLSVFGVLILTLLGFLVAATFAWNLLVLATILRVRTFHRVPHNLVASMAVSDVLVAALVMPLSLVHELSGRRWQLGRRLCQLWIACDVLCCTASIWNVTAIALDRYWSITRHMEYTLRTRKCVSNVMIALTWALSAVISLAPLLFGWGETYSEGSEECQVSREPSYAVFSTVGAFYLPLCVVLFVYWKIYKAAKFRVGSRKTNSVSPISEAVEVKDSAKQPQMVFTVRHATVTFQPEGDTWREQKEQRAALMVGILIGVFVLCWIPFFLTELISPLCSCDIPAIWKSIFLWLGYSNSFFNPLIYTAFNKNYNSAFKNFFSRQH

SMILES | inhibition
CNC(=O)[C@@]12C[C@@H]1[C@@H](n1cnc3c(N(C)C)nc(C#Cc4ccc(Cl)s4)nc31)[C@H](O)[C@@H]2O | < 50%

Target: 5-hydroxytryptamine receptor 2B (Homo sapiens, UniProt P41595)
Conditions: HEK293, at 10 µM

Chain of 5-hydroxytryptamine receptor 2B (P41595 whole entry): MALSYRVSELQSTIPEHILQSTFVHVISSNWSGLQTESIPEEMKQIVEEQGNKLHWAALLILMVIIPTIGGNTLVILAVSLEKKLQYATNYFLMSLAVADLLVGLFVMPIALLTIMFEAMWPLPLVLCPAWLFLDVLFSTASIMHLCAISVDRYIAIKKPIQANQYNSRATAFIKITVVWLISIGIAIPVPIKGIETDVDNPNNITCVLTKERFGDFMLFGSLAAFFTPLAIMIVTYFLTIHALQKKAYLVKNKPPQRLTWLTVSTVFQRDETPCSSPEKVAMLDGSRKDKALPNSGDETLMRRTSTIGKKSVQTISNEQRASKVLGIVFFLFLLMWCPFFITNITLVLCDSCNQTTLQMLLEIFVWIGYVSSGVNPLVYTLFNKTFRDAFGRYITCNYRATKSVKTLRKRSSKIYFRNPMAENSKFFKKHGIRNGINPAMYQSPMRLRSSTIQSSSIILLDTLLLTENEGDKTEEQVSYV

SMILES | inhibition
CNC(=O)[C@@]12C[C@@H]1[C@@H](n1cnc3c(N(C)C)nc(C#Cc4ccc(Cl)s4)nc31)[C@H](O)[C@@H]2O | < 10%

Target: T6, Adenosine receptor A1 (Homo sapiens) (UniProt P30542)
T6 sequence (whole entry): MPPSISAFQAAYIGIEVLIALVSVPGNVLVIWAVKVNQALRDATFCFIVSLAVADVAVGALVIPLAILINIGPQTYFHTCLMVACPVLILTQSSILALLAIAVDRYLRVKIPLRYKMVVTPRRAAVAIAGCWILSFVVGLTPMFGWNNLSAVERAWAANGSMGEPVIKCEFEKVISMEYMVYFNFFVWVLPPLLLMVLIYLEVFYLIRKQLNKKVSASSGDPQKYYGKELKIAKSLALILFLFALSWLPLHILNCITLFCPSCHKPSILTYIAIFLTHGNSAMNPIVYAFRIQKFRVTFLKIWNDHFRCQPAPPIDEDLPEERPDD
Test: Displacement of [3H]N6-phenylisopropyladenosine from recombinant human A1AR expressed in CHO cell membranes at 10 uM after 60 mins by liquid scintillation counting method relative to control
Conditions: not given

SMILES | inhibition
CNC(=O)[C@@]12C[C@@H]1[C@@H](n1cnc3c(N(C)C)nc(C#Cc4ccc(Cl)s4)nc31)[C@H](O)[C@@H]2O | 25%

Target: 5-hydroxytryptamine receptor 1E (Homo sapiens) (UniProt P28566)
Test: Displacement of [3H]5-HT from human 5-HT1E receptor expressed in HEK cell membranes at 10 uM incubated for 90 mins under dark condition by microbeta scintillation counting method relative to control
Conditions: HEK293

Chain of 5-hydroxytryptamine receptor 1E (Homo sapiens) (P28566 whole entry): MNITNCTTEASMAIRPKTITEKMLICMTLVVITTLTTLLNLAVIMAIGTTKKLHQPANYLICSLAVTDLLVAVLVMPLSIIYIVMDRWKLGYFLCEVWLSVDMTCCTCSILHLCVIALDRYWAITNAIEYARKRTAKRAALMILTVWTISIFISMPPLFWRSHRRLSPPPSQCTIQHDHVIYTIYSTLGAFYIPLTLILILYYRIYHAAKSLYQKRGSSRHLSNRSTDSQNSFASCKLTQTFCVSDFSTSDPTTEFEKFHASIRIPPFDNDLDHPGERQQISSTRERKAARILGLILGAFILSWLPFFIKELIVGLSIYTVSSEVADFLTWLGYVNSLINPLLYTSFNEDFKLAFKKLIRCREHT

SMILES | inhibition
CNC(=O)[C@@]12C[C@@H]1[C@@H](n1cnc3c(N(C)C)nc(C#Cc4ccc(Cl)s4)nc31)[C@H](O)[C@@H]2O | < 50%

Target: T7, 5-hydroxytryptamine receptor 2C (Homo sapiens) (UniProt P28335)
T7 sequence (whole entry): T5 sequence (P28335 whole entry)
Test: Displacement of [3H]mesulergine from human 5-HT2CR expressed in Flp-In HEK cell membranes at 10 uM incubated for 90 mins under dark condition by microbeta scintillation counting method relative to control
Conditions: HEK293

SMILES | inhibition
CNC(=O)[C@@]12C[C@@H]1[C@@H](n1cnc3c(N(C)C)nc(C#Cc4ccc(Cl)s4)nc31)[C@H](O)[C@@H]2O | > 50%

System: not listed separately
Test: Displacement of [3H]DTG from sigma2 receptor in rat PC12 cells after 90 mins by microbeta scintillation counting method
Format: cell-based
Conditions: pc-12

SMILES | Ki
CNC(=O)[C@@]12C[C@@H]1[C@@H](n1cnc3c(N(C)C)nc(C#Cc4ccc(Cl)s4)nc31)[C@H](O)[C@@H]2O | 7.3 µM
